From ChEMBL document CHEMBL1127021, “Structure-activity relationship of a series of phenylureas linked to 4-phenylimidazole. Novel potent inhibitors of acyl-CoA:cholesterol O-acyltransferase with antiatherosclerotic activity. 2” (J Med Chem, 1993)

Columns and labels:
Rattus norvegicus [1] = organism: Rattus norvegicus; assay: Tested for hypocholesterolemic activity required to decrease serum total cholesterol; type: functional
Rattus norvegicus [2] = assay: Cholesterol lowering activity in rats after a dose of 1 mg/kg once a day for 2 days; type: functional
[3] = molecular target: T1, Acyl-CoA:cholesterol acyltransferase (Oryctolagus cuniculus, UniProt Q95214); assay: Inhibition against acyl coenzyme A:cholesterol acyltransferase derived from rabbit aorta homogenate; type: tissue-based
T1 sequence (Q95214 whole entry): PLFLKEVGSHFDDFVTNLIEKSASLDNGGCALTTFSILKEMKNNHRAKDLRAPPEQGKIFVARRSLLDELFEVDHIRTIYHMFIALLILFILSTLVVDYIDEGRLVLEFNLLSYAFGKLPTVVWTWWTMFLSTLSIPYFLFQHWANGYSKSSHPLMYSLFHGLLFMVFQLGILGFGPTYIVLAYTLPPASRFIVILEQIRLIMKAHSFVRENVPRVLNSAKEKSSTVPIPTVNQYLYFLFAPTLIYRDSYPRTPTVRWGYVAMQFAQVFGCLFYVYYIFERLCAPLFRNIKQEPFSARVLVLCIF

O-acyltransferase [4] = molecular target: T2, O-acyltransferase (Oryctolagus cuniculus, UniProt G1SFD9); assay: Tested for inhibition against Acyl coenzyme A:cholesterol acyltransferase derived from rabbit intestine microsomes (>, denotes no effect at the concentration indicated)
T2 sequence (G1SFD9 1-524): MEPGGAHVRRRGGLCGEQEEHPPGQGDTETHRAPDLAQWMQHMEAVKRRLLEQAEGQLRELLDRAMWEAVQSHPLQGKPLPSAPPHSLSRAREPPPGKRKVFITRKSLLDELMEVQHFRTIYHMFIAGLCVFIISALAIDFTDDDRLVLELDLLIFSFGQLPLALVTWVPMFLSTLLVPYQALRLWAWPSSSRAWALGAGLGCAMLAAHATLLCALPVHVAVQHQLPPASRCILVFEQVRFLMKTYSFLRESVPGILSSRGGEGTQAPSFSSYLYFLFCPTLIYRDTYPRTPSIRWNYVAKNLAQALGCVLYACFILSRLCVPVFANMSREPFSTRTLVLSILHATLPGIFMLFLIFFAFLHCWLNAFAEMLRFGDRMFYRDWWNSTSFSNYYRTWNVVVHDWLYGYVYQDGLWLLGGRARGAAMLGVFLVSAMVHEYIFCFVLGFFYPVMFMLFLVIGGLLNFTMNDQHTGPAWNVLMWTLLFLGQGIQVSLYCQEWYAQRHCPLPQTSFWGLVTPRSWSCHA

O-acyltransferase [5] = molecular target: T2, O-acyltransferase; assay: Inhibition against acyl coenzyme A:cholesterol acyltransferase derived from rabbit intestine microsomes
Rattus norvegicus [6] = assay: Cholesterol lowering activity in rats after a dose of 4 mg/kg once a day for 2 days; type: functional
[7] = molecular target: T1, Acyl-CoA:cholesterol acyltransferase; assay: Tested for inhibition against Acyl coenzyme A:cholesterol acyltransferase derived from rabbit aorta homogenate (>, denotes no effect at the concentration indicated)
Rattus norvegicus [8] = assay: Tested for cholesterol lowering activity in rats after a dose of 4 mg/kg once a day for 2 days (at a dose of 1 mg/kg once a day for 2 days); type: functional

Row | SMILES | ED30 (Rattus norvegicus [1]) | Cholesterol reduction (Rattus norvegicus [2]) | IC50 [3] | IC50 (O-acyltransferase [4]) | IC50 (O-acyltransferase [5]) | Cholesterol reduction (Rattus norvegicus [6]) | IC50 [7] | Cholesterol reduction (Rattus norvegicus [8])
1 | CCCCCCCN(Cc1ccc(CC(C)(C)C)cc1)C(=O)Nc1ccc(F)cc1F [CL-277082] | 1.5 mg/kg |  |  |  |  |  |  | 
2 | CCCCNC(=O)Nc1c(C)cccc1OCCCn1cnc(-c2ccccc2)c1CC | 0.5 mg/kg | -46% | 0.16 µM |  |  |  |  | 
3 | CCCCCNC(=O)Nc1c(CO)cccc1OCCCn1cnc(-c2ccccc2)c1C |  |  | 3.3 µM | > 1 µM |  |  |  | 
4 | CCCCCNC(=O)Nc1c(C)cccc1OCCCn1cnc(-c2ccccc2)c1C(C)C |  | -30% | 0.031 µM |  | 0.18 µM | -49% |  | 
5 | CCCCNC(=O)Nc1c(C)cccc1OCCCn1cnc(-c2ccccc2)c1C |  | -34% | 0.48 µM |  | 0.073 µM | -45% |  | 
6 | CCOCCNC(=O)Nc1c(C)cccc1OCCCn1cnc(-c2ccccc2)c1C |  |  |  |  | 0.34 µM |  | > 1 µM | 
7 | CCCCCNC(=O)Nc1c(C)cccc1OCCCn1cnc(-c2ccccc2C)c1 |  | -25% | 0.1 µM |  | 0.26 µM | -48% |  | 
8 | CCCCCNC(=O)Nc1c(OCCCn2cnc(-c3ccccc3)c2C)cccc1N(C)C | 1.9 mg/kg |  |  |  |  | -42% |  | 
9 | CCCCCNC(=O)Nc1c(C)cccc1OCCCn1cnc(-c2ccccc2)c1CCC |  | -49% | 0.063 µM |  | 0.16 µM | -56% |  | 
10 | CCCCCNC(=O)Nc1c(OCCCn2cnc(-c3ccccc3)c2C)cccc1C(C)C |  | -40% | 0.045 µM |  | 0.071 µM | -59% |  | 
11 | COCCCNC(=O)Nc1c(C)cccc1OCCCn1cnc(-c2ccccc2)c1C |  |  |  |  | 0.3 µM |  | > 1 µM | 
12 | CCCCCNC(=O)Nc1c(C)cccc1OCCCn1cnc(-c2ccccc2)c1C |  | -38% | 0.12 µM |  | 0.05 µM |  |  | -51%
13 | CCCCCNC(=O)Nc1c(C)cccc1OCCCn1cnc(-c2ccccc2)c1CO |  | -29% | 0.2 µM |  | 0.21 µM | -55% |  | 
14 | CCCCCNC(=O)Nc1c(C)cccc1OCCCn1cnc(-c2ccccc2)c1CSC |  | -20% | 0.12 µM |  | 0.54 µM | -33% |  | 
15 | CCCCNC(=O)Nc1c(C)cccc1OCCCn1cnc(-c2ccccc2)c1C(C)C | 0.4 mg/kg | -52% | 0.012 µM |  | 0.13 µM |  |  | 
